# According to ChEMBL document CHEMBL1201862, “PubChem BioAssay data set” (2004):
# Where “and” joins values, the source holds several entries; their conditions need not be identical. Equal values may be shown once.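 Assay format: 96-well plates, 48-hour exposure. GI50 is the concentration that inhibits growth by half.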 Calls of active or inactive are those of the source. Cut-off read from the data, not from the text of the source: active = GI50 up to about 1.1 µM and inactive = higher.
# How the values were obtained:
# Test in all cases: NCI tumour cell line growth inhibition, 48 h
# DLD-1 = system: DLD-1
# DMS-114 = system: DMS-114
# DMS-273 = system: DMS-273
# KM-20L2 = system: KM-20L2
# LXFL 529 = system: LXFL 529
# M19-MEL = system: M19-MEL
# RXF 631 = system: RXF 631
# XF498 = system: XF498
# HOP-18 = system: HOP-18
SMILES,GI50 (DLD-1),GI50 (DMS-114),GI50 (DMS-273),GI50 (KM-20L2),GI50 (LXFL 529),GI50 (M19-MEL),GI50 (RXF 631),GI50 (XF498),GI50 (HOP-18)
COc1ccc(Cc2cc(OC)c(OC)c(OC)c2)cc1O,0.207 µM (active),0.127 µM (active),0.0713 µM (active),51.6 µM (inactive),0.82 µM (active),0.0861 µM (active),25.2 µM (inactive),4.73 µM (inactive),
O=C1/C(=C/c2ccc(Cl)c(Cl)c2)CNC/C1=C\c1ccc(Cl)c(Cl)c1,1.89 µM (inactive),,5.73 µM (inactive),7.4 µM (inactive),3.97 µM (inactive),22.3 µM (inactive),36.3 µM (inactive),19.5 µM (inactive),33.7 µM (inactive)
O=C(c1ccccc1)C1N=NN(Cc2ccccc2[N+](=O)[O-])C1C(=O)c1ccccc1 (stereo not given),> 100 µM (inactive),> 100 µM (inactive),> 100 µM (inactive),> 100 µM (inactive),> 100 µM (inactive),> 100 µM (inactive),,,> 100 µM (inactive)
CC1=C(C(=O)NCc2ccccc2)C(c2ccc(Cl)c(Cl)c2)C(C(=O)NCc2ccccc2)=C(C)N1,> 100 µM (inactive),> 100 µM (inactive),> 100 µM (inactive),> 100 µM (inactive),> 100 µM (inactive),> 100 µM (inactive),,> 100 µM (inactive),
O=C1C2C(C(=O)N1c1ccccc1)C1([N+](=O)[O-])C=C3c4ccccc4N(C(=O)c4ccccc4)C32C2C(=O)N(c3ccccc3)C(=O)C21 (stereo not given),> 100 µM (inactive),> 100 µM (inactive),> 100 µM (inactive),,> 100 µM (inactive),> 100 µM (inactive),> 100 µM (inactive),> 100 µM (inactive),
CN1C(=O)C(=CN(C)c2ccccc2)C(=O)N(C)C1=O,> 100 µM (inactive),57.7 µM (inactive),> 100 µM (inactive),> 100 µM (inactive),> 100 µM (inactive),49.2 µM (inactive),,> 100 µM (inactive),69.8 µM (inactive)
CC1CCCC(C(O)CC2CC(=O)N(c3ccccc3)C(=O)C2)C1=O (stereo not given),> 100 µM (inactive),> 100 µM (inactive),> 100 µM (inactive),> 100 µM (inactive),> 100 µM (inactive),> 100 µM (inactive),,,> 100 µM (inactive)
C\C=C/C=C/C=C/C(=O)O,> 100 µM (inactive),> 100 µM (inactive),> 100 µM (inactive),> 100 µM (inactive),> 100 µM (inactive),,,,> 100 µM (inactive)
COc1c(O)c2c3c(c(C)cc(O)c3c1O)C(=O)C(O)(C(C)(C)C(C)=O)C2=O (stereo not given),> 100 µM (inactive),,> 100 µM (inactive),> 100 µM (inactive),> 100 µM (inactive),14.7 µM (inactive) and 18.4 µM (inactive),,> 100 µM (inactive),> 100 µM (inactive)
N#CC1=C(Cl)NC(Cl)=C(C#N)C1c1ccc(Cl)cc1,17.7 µM (inactive),15.2 µM (inactive),17.1 µM (inactive),24.6 µM (inactive),16.4 µM (inactive),,13 µM (inactive),14.1 µM (inactive),17.6 µM (inactive)
COC(=O)c1c[nH]c2nc(N3CCOCC3)nn2c1=O,,> 100 µM (inactive),> 100 µM (inactive),> 100 µM (inactive),,> 100 µM (inactive),,,
CC1=C(CC2C(=O)N(c3ccccc3)S(=O)(=O)NC2C)C(=O)N(c2ccccc2)S(=O)(=O)N1C (stereo not given),> 100 µM (inactive),> 100 µM (inactive),> 100 µM (inactive),> 100 µM (inactive),> 100 µM (inactive),> 100 µM (inactive),> 100 µM (inactive),> 100 µM (inactive),
CCOc1ccccc1NC(=O)C1=C(C)NC(C)=C(C(=O)Nc2ccccc2OCC)C1c1cccc([N+](=O)[O-])c1,46.8 µM (inactive),46.3 µM (inactive),72.1 µM (inactive),89.1 µM (inactive),24 µM (inactive),> 100 µM (inactive),,17.7 µM (inactive),
CC1(O)CC2C(CC1SC1CC3C(CC1(C)O)C3(C)C)C2(C)C (stereo not given),74.8 µM (inactive),48.5 µM (inactive),41.5 µM (inactive),,52.2 µM (inactive),24.9 µM (inactive),,35.1 µM (inactive),35.2 µM (inactive)
COc1cc2c(cc1OC)C1c3ccccc3C(C#N)(C2)N(C(=O)c2ccccc2)C1O (stereo not given),74.1 µM (inactive),41.2 µM (inactive),29.6 µM (inactive),82.4 µM (inactive),46.6 µM (inactive),> 100 µM (inactive),> 100 µM (inactive),24.8 µM (inactive),> 100 µM (inactive)
CC(C)N(C(=O)C12C3C4C1C1C2C3C41I)C(C)C (stereo not given),,> 100 µM (inactive),> 100 µM (inactive),,> 100 µM (inactive),> 100 µM (inactive),> 100 µM (inactive),> 100 µM (inactive),
Fc1cccc(/C=N/C23CC4CC(CC(C4)C2)C3)c1,> 100 µM (inactive),> 100 µM (inactive),> 100 µM (inactive),> 100 µM (inactive),> 100 µM (inactive),> 100 µM (inactive),,> 100 µM (inactive),> 100 µM (inactive)
COC(=O)C1=C(O)c2cc3c(cc2[C@H](c2cc(OC)c(OC)c(OC)c2)C1)OCO3,34.6 µM (inactive),41.2 µM (inactive),28.6 µM (inactive),25.3 µM (inactive),37.8 µM (inactive),0.478 µM (active),54.7 µM (inactive),25.9 µM (inactive),> 100 µM (inactive)
Clc1ccc(OCc2nnc3n2N=C(c2ccccc2)CS3)cc1,16.5 µM (inactive),,16 µM (inactive),15.2 µM (inactive),13.6 µM (inactive),16.9 µM (inactive),14 µM (inactive),17.1 µM (inactive),
COc1ccc(C2ON(c3cccc(C)n3)CC=C2C)cc1 (stereo not given),35.7 µM (inactive),40.7 µM (inactive),26.1 µM (inactive),47.1 µM (inactive),37.2 µM (inactive),34.6 µM (inactive),48.2 µM (inactive),38.3 µM (inactive),> 100 µM (inactive)
CC1(Cl)CC(C)(/C=C/Cl)C(Cl)CC1Cl (stereo not given),16.7 µM (inactive),,,13.2 µM (inactive),14.7 µM (inactive),18.7 µM (inactive),12.8 µM (inactive),14.4 µM (inactive),
COC(=O)[C@@]12C(=O)C=CC(=O)[C@@H]1C1C(=CC2COC(C)=O)O[C@@H]2OC3(CCCCC3)O[C@H]12 (stereo not given in full),9.68 µM (inactive),4.92 µM (inactive),8.61 µM (inactive),15.2 µM (inactive),4.28 µM (inactive),15.5 µM (inactive),21.9 µM (inactive),13.2 µM (inactive),10.3 µM (inactive)
CC1=CCCC2C(C=O)(C1)CC(C)C2(CO)CC/C(=C/CO)CO (stereo not given),> 100 µM (inactive),> 100 µM (inactive),> 100 µM (inactive),,79.3 µM (inactive),> 100 µM (inactive),> 100 µM (inactive),,> 100 µM (inactive)
CCN(c1n[n+]2c(-c3ccccc3)csc2s1)c1n[n+]2c(-c3ccccc3)csc2s1,> 100 µM (inactive),25.9 µM (inactive),46.8 µM (inactive),72.8 µM (inactive),50.9 µM (inactive),33.3 µM (inactive),,70.6 µM (inactive),> 100 µM (inactive)
Cc1c(C(=O)/C=C/c2ccccc2)[n+]([O-])c2ccccc2[n+]1[O-],14.2 µM (inactive),10.2 µM (inactive),15.8 µM (inactive),18 µM (inactive),13 µM (inactive),15.7 µM (inactive),,11.9 µM (inactive),18.7 µM (inactive)
